US20070101461A1, “Method for Improving Phytoremediation Treatment of a Contaminated Medium” (priority 2001, published 2007)

What was measured:
plant = conditions: cited from earlier work
Pseudomonas sp. VM422 = assay: zinc resistance phenotype, MIC on Tris minimal medium; type: cell-based; conditions: strain VM422
Iris pseudocarus = assay: survival of plants in the presence of 2,4-D; type: in vivo; conditions: 5 mg/l 2,4-D
Lupinus luteus = assay: toxicity test: toluene on growth of Lupinus luteus; conditions: hydroponic, 0-3000 mg per liter tested, all other exposed plants dead
yellow lupine = assay: plant growth with toluene during hydroponic cultivation; conditions: non-inoculated plants

SMILES: ClC(Cl)=C(Cl)Cl [PER]
- Fate in plant (toxic, build up, or volatile) (plant): Volatile

SMILES: [Zn] [zinc]
- MIC value for zinc (Pseudomonas sp. VM422): 20 mM

SMILES: ClC=C(Cl)Cl [TCE, tri-chloro-ethylene]
- Fate in plant (toxic, build up, or volatile) (plant): Volatile, Build-up

SMILES: O=C(O)COc1ccc(Cl)cc1Cl [2,4-D, 2,4-dichlorophenoxyacetic acid]
- Dead plants, Non-inoculated plants + 2,4-D (Iris pseudocarus): 75%
- Healthy plants, Non-inoculated plants + 2,4-D (Iris pseudocarus): 25%

SMILES: Cc1ccccc1 [toluene]
- toluene concentration at which the exposed plant was not dead at the end of the third week (Lupinus luteus): 100 mg per liter
- toluene dose at which non-inoculated controls showed growth reduction (yellow lupine): 100 mg/L
